This is an account of results in US6514507B2, “Hydroxydecenoic acid compounds for promoting desquamation/epidermal renewal of the skin and/or combating skin aging” (Societe L'Oreal S.A., priority 1998, dated 2003).

The test system of this test is differentiated human keratinocytes. As to the kind of experiment: in vitro screening of desquamating activity (release of corneocytes, cellular detachment index, flow cytometer). The note with it: for % of activity with respect to the control composed of an identical culture in the absence of compound (cellular detachment index): compounds at 5 × 10^−5 M, difference between T60 and T0 (60 minutes after addition), corneocytes counted by flow cytometer. Format: cell-based. On the procedure: This test of in vitro screening of an agent which is active with regard to desquamation was carried out on differentiated human keratinocytes. The principle of the test is based on the fact that desquamation induces the release of corneocytes. The desquamating power of the test product increases as the number of corneocytes released increases.
The protocol of the test was as follows: starting with biopsies of human skin, the keratinocytes obtained by separation from the epidermis were dissociated by enzymatic action with trypsin and were cultured at a concentration of 2×10^5 cell/ml. The growth and differentiation of the keratinocytes was obtained by culturing for 10 to 20 days in a specific medium. The activity of the test product was then evaluated after removal of the culture medium. To do this, two samples were taken at T0 and T60, that namely, before the addition of the product and 60 minutes after this addition. The samples thus taken were analyzed with a flow cytometer in order to count the population of corneocytes. The flow cytometer made it possible to distinguish the populations of corneocytes and of keratinocytes by treatment with acridine orange, which is specific for cellular DNA.
The cellular detachment index was determined by the difference between T60 and T0. The same measurement was carried out for a control not comprising test product, because the experiment inevitably produced the release of corneocytes, even in the absence of active principles.
The test was carried out with 10-hydroxy-2-decenoic acid at a concentration of 5×10^−5M.
For orientation: Flow cytometry measures light scatter and fluorescence of single cells or particles in a stream.

With `CCCCCCCC(=O)c1ccc(O)c(C(=O)O)c1` [Reference, 2-Hydroxy-5-octanoylbenzoic acid, reference compound], the “% of activity with respect to the control composed of an identical culture in the absence of compound (cellular detachment index)” value came out at 92%.
For the compound `O=C(O)C=CCCCCCCCO` [10-Hydroxy-2-decenoic acid], the “% of activity with respect to the control composed of an identical culture in the absence of compound (cellular detachment index)” value stood at 110%. For the same compound, the “activity with regard to cellular detachment” value (5 × 10^−5 M, differentiated human keratinocytes) was “high”.
